The target in experiment [1] is T1, porcine beta-2 adrenoceptor (Sus scrofa, UniProt Q28997).
T1 construct: expressed in transfected cells; host or cells: CHO cells
The experiment in a line: cAMP assay in CHO cells transfected with the porcine beta-2 adrenoceptor. The format is cell-based. Conditions: cAMP (DiscoveRx Hit Hunter cAMP II) in CHO cells transfected with porcine beta-2 adrenoceptor, 30 minutes with compound, 0.5 mM IBMX. In short, it runs like this: (§1)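 Transfected CHO cells were preincubated 30 min with 0.5 mM IBMX in PBS. Compound (5×10^−12 to 10^−5 M) was then applied for 30 min at 37 °C, 5% CO2, followed by cAMP measurement with an enzyme-fragment complementation kit. Duplicates, EC50 from curve fitting.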

Experiment [2] has as its target T2, bovine beta-2 adrenoceptor (Bos taurus, UniProt Q28044).
T2 construct: expressed in transfected cells; host or cells: CHO cells
In words: cAMP assay in CHO cells transfected with the bovine beta-2 adrenoceptor. The format is cell-based. Particulars: cAMP (DiscoveRx Hit Hunter cAMP II) in CHO cells transfected with bovine beta-2 adrenoceptor, 30 minutes with compound, 0.5 mM IBMX. The method in brief: as §1
A general note: cAMP levels reflect the balance of adenylyl cyclase and phosphodiesterase activity.

By EC50 is commonly meant the midpoint of the concentration-response curve.

T1 sequence (Q28997 whole entry): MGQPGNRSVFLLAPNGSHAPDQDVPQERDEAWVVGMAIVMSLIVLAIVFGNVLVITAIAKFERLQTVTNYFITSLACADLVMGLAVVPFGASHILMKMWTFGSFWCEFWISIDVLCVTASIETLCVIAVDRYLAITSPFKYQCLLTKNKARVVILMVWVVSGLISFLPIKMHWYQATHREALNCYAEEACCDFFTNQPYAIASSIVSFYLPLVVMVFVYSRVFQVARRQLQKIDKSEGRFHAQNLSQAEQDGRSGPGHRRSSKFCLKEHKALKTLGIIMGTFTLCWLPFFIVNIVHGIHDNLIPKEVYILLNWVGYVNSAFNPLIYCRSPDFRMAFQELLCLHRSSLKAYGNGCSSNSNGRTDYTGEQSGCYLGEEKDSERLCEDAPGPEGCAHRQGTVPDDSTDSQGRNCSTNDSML
T2 sequence (Q28044 whole entry): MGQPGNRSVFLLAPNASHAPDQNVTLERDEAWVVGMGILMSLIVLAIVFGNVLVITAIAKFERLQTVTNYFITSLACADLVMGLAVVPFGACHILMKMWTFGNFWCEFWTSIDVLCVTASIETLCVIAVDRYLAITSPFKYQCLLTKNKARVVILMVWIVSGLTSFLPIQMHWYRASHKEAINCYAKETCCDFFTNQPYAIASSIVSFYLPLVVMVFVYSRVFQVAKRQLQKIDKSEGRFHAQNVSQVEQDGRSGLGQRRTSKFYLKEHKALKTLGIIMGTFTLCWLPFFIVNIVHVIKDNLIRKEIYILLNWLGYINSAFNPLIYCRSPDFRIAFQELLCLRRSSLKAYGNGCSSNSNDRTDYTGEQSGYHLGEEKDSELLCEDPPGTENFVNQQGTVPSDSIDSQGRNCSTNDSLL

On to `Cc1cc(CCC(C)NC2CCn3c(=O)[nH]c4cccc(c43)C2O)cc(C)c1O` (stereo not shown) [Example 15, 7-Hydroxy-6-{[3-(4-hydroxy-3,5-dimethylphenyl)-1-methylpropyl]amino}-4,5,6,7-tetrahydroimidazo[4,5,1-jk][1]benzazepin-2(1H)-one], for which the values for the EC50 in experiment [1] and in experiment [2] were 48.7 nM and 221 nM, respectively.
Taken in the same sequence, the figures for `CC(CCc1ccc(OCC2CC2)cc1)N[C@@H]1CCn2c(=O)[nH]c3cccc(c32)[C@H]1O` (mixture of isomers) [Example 1a, 6-({3-[4-(Cyclopropylmethoxy)phenyl]-1-methylpropyl}amino)-7-hydroxy-4,5,6,7-tetrahydroimidazo[4,5,1-jk][1]benzazepin-2(1H)-one] were 5.9 nM and 14 nM.
With `CC(CCc1ccc(O)c(F)c1F)NC1CCn2c(=O)[nH]c3cccc(c32)C1O` (single isomer, unassigned) [Example 37, 6-{[3-(2,3-Difluoro-4-hydroxyphenyl)-1-methylpropyl]amino}-7-hydroxy-4,5,6,7-tetrahydroimidazo[4,5,1-jk][1]benzazepin-2(1H)-one], the half-maximal effective concentration (EC50) worked out at 1.9 nM in experiment [1] and 2.8 nM in experiment [2].
Taken in the same sequence, the figures for `CC(CCc1c(F)cccc1Cl)N[C@@H]1CCn2c(=O)[nH]c3cccc(c32)[C@H]1O` (mixture of isomers) [Example 32, 6-{[3-(2-Chloro-6-fluorophenyl)-1-methylpropyl]amino}-7-hydroxy-4,5,6,7-tetrahydroimidazo[4,5,1-jk][1]benzazepin-2(1H)-one] were 2.9 nM and 8.6 nM.
As to `CC(CCc1cccc(F)c1O)N[C@@H]1CCn2c(=O)[nH]c3cccc(c32)[C@H]1O` (mixture of isomers) [Example 28b, 6-{[3-(3-Fluoro-2-hydroxyphenyl)-1-methylpropyl]amino}-7-hydroxy-4,5,6,7-tetrahydroimidazo[4,5,1-jk][1]benzazepin-2(1H)-one], the results for the half-maximal effective concentration (EC50) in experiment [1] and in experiment [2] were 80 nM and 55 nM, respectively.
Taken in the same sequence, the figures for `CC(/C=C/c1ccccc1NS(C)(=O)=O)N[C@@H]1CCn2c(=O)[nH]c3cccc(c32)[C@H]1O` (mixture of isomers) [Example 42, N-{2-[3-{[7-Hydroxy-2-oxo-1,2,4,5,6,7-hexahydroimidazo[4,5,1-jk][1]benzazepin-6-yl]amino}but-1-en-1-yl]phenyl}methanesulfonamide] were 104 nM and 258 nM.
As for `CCS(=O)(=O)Nc1ccccc1CCC(C)NC1CCn2c(=O)[nH]c3cccc(c32)C1O` (single isomer, unassigned) [Example 56, N-{2-[3-{[7-Hydroxy-2-oxo-1,2,4,5,6,7-hexahydroimidazo[4,5,1-jk][1]benzazepin-6-yl]amino}butyl]phenyl}ethanesulfonamide], the EC50 was 2.8 nM in experiment [1] and 5.2 nM in experiment [2].
On to `CC(CCc1ccccc1O)N[C@@H]1CCn2c(=O)[nH]c3cccc(c32)[C@H]1O` (mixture of isomers) [Example 6b, 7-Hydroxy-6-{[3-(2-hydroxyphenyl)-1-methylpropyl]amino}-4,5,6,7-tetrahydroimidazo[4,5,1-jk][1]benzazepin-2(1H)-one], for which the concentration giving a half-maximal response (EC50) was 1.4 nM in experiment [1] and 2 nM in experiment [2].
Taken in the same sequence, the figures for `COc1ccc(CCC(C)NC2CCn3c(=O)[nH]c4cccc(c43)C2O)cc1` (stereo not shown) [Example 34, 7-Hydroxy-6-{[3-(4-methoxyphenyl)-1-methylpropyl]amino}-4,5,6,7-tetrahydroimidazo[4,5,1-jk][1]benzazepin-2(1H)-one] were 30.4 nM and 20.3 nM.
Taken in the same sequence, the figures for `CC(CCc1cccc(Cl)c1O)N[C@@H]1CCn2c(=O)[nH]c3cccc(c32)[C@H]1O` (single isomer, unassigned) [Example 5b, 6-{[3-(3-Chloro-2-hydroxyphenyl)-1-methylpropyl]amino}-7-hydroxy-4,5,6,7-tetrahydroimidazo[4,5,1-jk][1]benzazepin-2(1H)-one] were 2.9 nM and 1.6 nM.
Taken in the same sequence, the figures for `COc1ccccc1CCC(C)N[C@@H]1CCn2c(=O)[nH]c3cccc(c32)[C@H]1O` (mixture of isomers) [Example 20, 7-Hydroxy-6-{[3-(2-methoxyphenyl)-1-methylpropyl]amino}-4,5,6,7-tetrahydroimidazo[4,5,1-jk][1]benzazepin-2(1H)-one] were 35.8 nM and 7.5 nM.
Take `CC(CCc1cc(F)ccc1O)N[C@@H]1CCn2c(=O)[nH]c3cccc(c32)[C@H]1O` (single isomer, unassigned) [Example 7b, 6-{[3-(5-Fluoro-2-hydroxyphenyl)-1-methylpropyl]amino}-7-hydroxy-4,5,6,7-tetrahydroimidazo[4,5,1-jk][1]benzazepin-2(1H)-one]: the 50% effective concentration (EC50) was 0.5 nM in experiment [1] and 0.3 nM in experiment [2].
For `CC(CCc1ccc(O)c(F)c1)NC1CCn2c(=O)[nH]c3cccc(c32)C1O` (single isomer, unassigned) [Example 58, 6-{[3-(3-Fluoro-4-hydroxyphenyl)-1-methylpropyl]amino}-7-hydroxy-4,5,6,7-tetrahydroimidazo[4,5,1-jk][1]benzazepin-2(1H)-one], the results for the EC50 in experiment [1] and in experiment [2] were 2.4 nM and 1.1 nM, respectively.
For the compound `CC(CCc1cccc(C(=O)O)c1)N[C@@H]1CCn2c(=O)[nH]c3cccc(c32)[C@H]1O` (single isomer, unassigned) [Example 53], the EC50 in experiment [1] was 78.8 nM; in experiment [2] it was 167 nM.

These data come from patent US20080161288A1, “COMPOUNDS” (Pfizer Inc., priority 2006, published 2008).
